{"source": "the supplement of paper PMC10307832", "assay_in_all_cases": "relative viability (nuclei count vs DMSO), 5 days (fraction); higher = more cells survive", "key": {"[1]": {"test_system": "Calu-6", "in_short": "(§1)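 Lung cancer cell lines in 1536-well plates were dosed by pin tool the day after seeding, either with one drug alone or with a fixed anchor-drug dose plus five library-drug doses (not always all listed) in √10 steps. After 5 days, cells were fixed and their nuclei stained in one step (final 0.05% Triton X-100, 1% formaldehyde, 1 ug/ml Hoechst), then counted on 4× images. Relative viability is the nuclei count in treated wells divided by that in vehicle wells. Values are medians of duplicate plates.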"}, "[2]": {"test_system": "NCI-H1944", "in_short": "as §1"}, "[3]": {"test_system": "NCI-H661", "in_short": "as §1"}, "[4]": {"test_system": "SK-LU-1", "in_short": "as §1"}, "[5]": {"test_system": "IA-LM", "in_short": "as §1"}, "[6]": {"test_system": "NCI-H1666", "in_short": "as §1"}, "[7]": {"test_system": "NCI-H1299", "in_short": "as §1"}, "[8]": {"test_system": "PC-14", "in_short": "as §1"}, "[9]": {"test_system": "A549", "in_short": "as §1"}, "[10]": {"test_system": "EBC-1", "in_short": "as §1"}, "[11]": {"test_system": "NCI-H596", "in_short": "as §1"}, "[12]": {"test_system": "NCI-H1703", "in_short": "as §1"}}, "data": [{"compound": "CN1CCN(CCOc2cc(OC3CCOCC3)c3c(Nc4c(Cl)ccc5c4OCO5)ncnc3c2)CC1", "note": "[Saracatinib] + C[C@]1(O)C[C@@H](c2nc(-c3ccc4ccc(-c5ccccc5)nc4c3)c3c(N)nccn32)C1 [Linsitinib] (partner 1 µM)", "values": [{"measurement": "relative viability", "setting": "[1]; first compound 0.02 µM", "result": 0.95}, {"measurement": "relative viability", "setting": "[1]; first compound 0.2 µM", "result": 0.824}, {"measurement": "relative viability", "setting": "[1]; first compound 0.6325 µM", "result": 0.906}, {"measurement": "relative viability", "setting": "[1]; first compound 2 µM", "result": 0.68}, {"measurement": "relative viability", "setting": "[2]; first compound 0.02 µM", "result": 1.21}, {"measurement": "relative viability", "setting": "[2]; first compound 0.6325 µM", "result": 0.971}, {"measurement": "relative viability", "setting": "[2]; first compound 2 µM", "result": 0.704}, {"measurement": "relative viability", "setting": "[3]; first compound 0.02 µM", "result": 0.525}, {"measurement": "relative viability", "setting": "[3]; first compound 0.2 µM", "result": 0.598}, {"measurement": "relative viability", "setting": "[3]; first compound 0.6325 µM", "result": 0.571}, {"measurement": "relative viability", "setting": "[3]; first compound 2 µM", "result": 0.376}, {"measurement": "relative viability", "setting": "[4]; first compound 0.02 µM", "result": 0.92}, {"measurement": "relative viability", "setting": "[4]; first compound 0.2 µM", "result": 0.752}, {"measurement": "relative viability", "setting": "[4]; first compound 0.6325 µM", "result": 0.639}, {"measurement": "relative viability", "setting": "[4]; first compound 2 µM", "result": 0.374}, {"measurement": "relative viability", "setting": "[5]; first compound 0.02 µM", "result": 0.682}, {"measurement": "relative viability", "setting": "[5]; first compound 0.2 µM", "result": 0.838}, {"measurement": "relative viability", "setting": "[5]; first compound 0.6325 µM", "result": 1.43}, {"measurement": "relative viability", "setting": "[5]; first compound 2 µM", "result": 0.815}, {"measurement": "relative viability", "setting": "[6]; first compound 0.02 µM", "result": 0.81}, {"measurement": "relative viability", "setting": "[6]; first compound 0.2 µM", "result": 0.909}, {"measurement": "relative viability", "setting": "[6]; first compound 0.6325 µM", "result": 0.815}, {"measurement": "relative viability", "setting": "[6]; first compound 2 µM", "result": 0.844}, {"measurement": "relative viability", "setting": "[7]; first compound 0.02 µM", "result": 0.992}, {"measurement": "relative viability", "setting": "[7]; first compound 0.2 µM", "result": 0.791}, {"measurement": "relative viability", "setting": "[7]; first compound 0.6325 µM", "result": 0.979}, {"measurement": "relative viability", "setting": "[7]; first compound 2 µM", "result": 0.655}, {"measurement": "relative viability", "setting": "[8]; first compound 0.02 µM", "result": 0.952}, {"measurement": "relative viability", "setting": "[8]; first compound 0.2 µM", "result": 0.708}, {"measurement": "relative viability", "setting": "[8]; first compound 0.6325 µM", "result": 0.304}, {"measurement": "relative viability", "setting": "[8]; first compound 2 µM", "result": 0.166}, {"measurement": "relative viability", "setting": "[9]; first compound 0.02 µM", "result": 0.564}, {"measurement": "relative viability", "setting": "[9]; first compound 0.2 µM", "result": 0.566}, {"measurement": "relative viability", "setting": "[9]; first compound 0.6325 µM", "result": 0.638}, {"measurement": "relative viability", "setting": "[9]; first compound 2 µM", "result": 0.357}, {"measurement": "relative viability", "setting": "[10]; first compound 0.02 µM", "result": 0.94}, {"measurement": "relative viability", "setting": "[10]; first compound 0.2 µM", "result": 0.771}, {"measurement": "relative viability", "setting": "[10]; first compound 0.6325 µM", "result": 1.07}, {"measurement": "relative viability", "setting": "[10]; first compound 2 µM", "result": 0.982}, {"measurement": "relative viability", "setting": "[11]; first compound 0.02 µM", "result": 1.01}, {"measurement": "relative viability", "setting": "[11]; first compound 0.2 µM", "result": 0.85}, {"measurement": "relative viability", "setting": "[11]; first compound 0.6325 µM", "result": 0.877}, {"measurement": "relative viability", "setting": "[11]; first compound 2 µM", "result": 0.737}, {"measurement": "relative viability", "setting": "[12]; first compound 0.02 µM", "result": 1.02}, {"measurement": "relative viability", "setting": "[12]; first compound 0.2 µM", "result": 0.738}, {"measurement": "relative viability", "setting": "[12]; first compound 0.6325 µM", "result": 0.513}, {"measurement": "relative viability", "setting": "[12]; first compound 2 µM", "result": 0.35}]}, {"compound": "CN1CCN(CCOc2cc(OC3CCOCC3)c3c(Nc4c(Cl)ccc5c4OCO5)ncnc3c2)CC1", "note": "[Saracatinib] + Cc1nc(NC(=O)N2CCC[C@H]2C(N)=O)sc1-c1ccnc(C(C)(C)C(F)(F)F)c1 [Alpelisib] (partner 2 µM)", "values": [{"measurement": "relative viability", "setting": "[1]; first compound 0.02 µM", "result": 1.02}, {"measurement": "relative viability", "setting": "[1]; first compound 0.2 µM", "result": 0.683}, {"measurement": "relative viability", "setting": "[1]; first compound 0.6325 µM", "result": 0.721}, {"measurement": "relative viability", "setting": "[1]; first compound 2 µM", "result": 0.76}, {"measurement": "relative viability", "setting": "[2]; first compound 0.02 µM", "result": 0.847}, {"measurement": "relative viability", "setting": "[2]; first compound 0.6325 µM", "result": 0.808}, {"measurement": "relative viability", "setting": "[2]; first compound 2 µM", "result": 0.524}, {"measurement": "relative viability", "setting": "[3]; first compound 0.02 µM", "result": 0.838}, {"measurement": "relative viability", "setting": "[3]; first compound 0.2 µM", "result": 0.329}, {"measurement": "relative viability", "setting": "[3]; first compound 0.6325 µM", "result": 0.357}, {"measurement": "relative viability", "setting": "[3]; first compound 2 µM", "result": 0.377}, {"measurement": "relative viability", "setting": "[4]; first compound 0.02 µM", "result": 0.634}, {"measurement": "relative viability", "setting": "[4]; first compound 0.2 µM", "result": 0.673}, {"measurement": "relative viability", "setting": "[4]; first compound 0.6325 µM", "result": 0.44}, {"measurement": "relative viability", "setting": "[4]; first compound 2 µM", "result": 0.297}, {"measurement": "relative viability", "setting": "[5]; first compound 0.02 µM", "result": 0.93}, {"measurement": "relative viability", "setting": "[5]; first compound 0.6325 µM", "result": 1.44}, {"measurement": "relative viability", "setting": "[5]; first compound 2 µM", "result": 0.958}, {"measurement": "relative viability", "setting": "[6]; first compound 0.02 µM", "result": 1.22}, {"measurement": "relative viability", "setting": "[6]; first compound 0.2 µM", "result": 0.936}, {"measurement": "relative viability", "setting": "[6]; first compound 0.6325 µM", "result": 1.2}, {"measurement": "relative viability", "setting": "[6]; first compound 2 µM", "result": 0.837}, {"measurement": "relative viability", "setting": "[7]; first compound 0.02 µM", "result": 1.08}, {"measurement": "relative viability", "setting": "[7]; first compound 0.2 µM", "result": 1.02}, {"measurement": "relative viability", "setting": "[7]; first compound 0.6325 µM", "result": 1.14}, {"measurement": "relative viability", "setting": "[7]; first compound 2 µM", "result": 1.1}, {"measurement": "relative viability", "setting": "[8]; first compound 0.02 µM", "result": 0.996}, {"measurement": "relative viability", "setting": "[8]; first compound 0.2 µM", "result": 0.681}, {"measurement": "relative viability", "setting": "[8]; first compound 0.6325 µM", "result": 0.46}, {"measurement": "relative viability", "setting": "[8]; first compound 2 µM", "result": 0.172}, {"measurement": "relative viability", "setting": "[9]; first compound 0.02 µM", "result": 0.799}, {"measurement": "relative viability", "setting": "[9]; first compound 0.2 µM", "result": 0.718}, {"measurement": "relative viability", "setting": "[9]; first compound 0.6325 µM", "result": 0.861}, {"measurement": "relative viability", "setting": "[9]; first compound 2 µM", "result": 0.5}, {"measurement": "relative viability", "setting": "[10]; first compound 0.02 µM", "result": 0.929}, {"measurement": "relative viability", "setting": "[10]; first compound 0.2 µM", "result": 0.764}, {"measurement": "relative viability", "setting": "[10]; first compound 0.6325 µM", "result": 0.898}, {"measurement": "relative viability", "setting": "[10]; first compound 2 µM", "result": 0.906}, {"measurement": "relative viability", "setting": "[11]; first compound 0.02 µM", "result": 0.459}, {"measurement": "relative viability", "setting": "[11]; first compound 0.2 µM", "result": 0.424}, {"measurement": "relative viability", "setting": "[11]; first compound 0.6325 µM", "result": 0.448}, {"measurement": "relative viability", "setting": "[11]; first compound 2 µM", "result": 0.403}, {"measurement": "relative viability", "setting": "[12]; first compound 0.02 µM", "result": 0.321}, {"measurement": "relative viability", "setting": "[12]; first compound 0.2 µM", "result": 0.243}, {"measurement": "relative viability", "setting": "[12]; first compound 0.6325 µM", "result": 0.189}, {"measurement": "relative viability", "setting": "[12]; first compound 2 µM", "result": 0.184}]}]}
